Assay: LogP by HPLC on reversed phase columns (EEC directive 79/831 Annex V.A8), method [a]
Format: physicochemical
Conditions: LC-UV, acidic range, 0.1% formic acid in water and acetonitrile as eluent (linear gradient 10% to 95% acetonitrile)

Going from `Cc1c(NC(=O)c2cccnc2C(F)F)cccc1-c1cnn(C(C)C)c1` [Example 113] to `CCC(C)Oc1cccc(NC(=O)c2cccnc2C(F)F)c1C` (stereo not drawn) [Example 11], the “LogP[a]” value rises from 2.17 to 3.02.

`Cc1c(NC(=O)c2cccnc2C(F)F)cccc1OCc1ccc(C(F)(F)F)cc1` [Example 73] and `Cc1c(NC(=O)c2cccnc2C(F)F)cccc1OCc1cccc(C(F)(F)F)c1` [Example 38] are within 0.2 log units of each other in “LogP[a]” value: 3.57 for the first, 3.52 for the second.

Compared with `Cc1c(NC(=O)c2cccnc2C(F)F)cccc1OC(C)c1ccccc1C(F)(F)F` (stereo not drawn) [Example 55], `Cc1c(NC(=O)c2cccnc2C(F)F)cccc1OC(C)c1ccccc1F` (stereo not drawn) [Example 57] is lower in “LogP[a]” value: 3.87 for the first, 3.37 for the second.

Going from `Cc1c(NC(=O)c2cccnc2C(F)F)cccc1OC(C)COc1ccccc1Cl` (stereo not drawn) [Example 35] to `Cc1c(NC(=O)c2cccnc2C(F)F)cccc1OC(C)Cc1cccc(Cl)c1` (stereo not drawn) [Example 68], the “LogP[a]” value rises from 3.59 to 3.85.

First: Cc1c(NC(=O)c2cccnc2C(F)F)cccc1OCc1cccc(F)c1 [Example 40]
Second: Cc1c(NC(=O)c2cccnc2C(F)F)cccc1OCc1cccc(Br)c1 [Example 54]
The “LogP[a]” value of the first is lower: 3.09 for the first, 3.52 for the second.

Going from `O=C(Nc1cccc(-c2ccccc2Cl)c1Cl)c1cccnc1C(F)F` [Example 7] to `O=C(Nc1cccc(-c2cccc(Cl)c2)c1Cl)c1cccnc1C(F)F` [Example 8], the “LogP[a]” value rises from 3.22 to 3.49.

First: Cc1c(NC(=O)c2cccnc2C(F)F)cccc1C1CC1 [Example 122]
Second: Cc1c(NC(=O)c2cccnc2C(F)F)cccc1C1CCCO1 (stereo not drawn) [Example 82]
The “LogP[a]” value of the first is higher: 2.43 for the first, 2.02 for the second.

First: Cc1c(NC(=O)c2cccnc2C(F)F)cccc1OCC(F)(F)F [Example 119]
Second: Cc1c(NC(=O)c2cccnc2C(F)F)cccc1OCCC1CC1 [Example 26]
The “LogP[a]” value of the first is lower: 2.55 for the first, 3.17 for the second.

First: CO/N=C\C(C)Oc1cccc(NC(=O)c2cccnc2C(F)F)c1C (stereo not drawn) [Example 28]
Second: CCCCC(C)Oc1cccc(NC(=O)c2cccnc2C(F)F)c1C (stereo not drawn) [Example 86]
The “LogP[a]” value of the first is lower: 2.49 for the first, 3.94 for the second.

`Cc1c(NC(=O)c2cccnc2C(F)F)cccc1OCCc1ccccc1C(F)(F)F` [Example 59] and `Cc1c(NC(=O)c2cccnc2C(F)F)cccc1OCCc1ccc(Cl)cc1` [Example 66] are within 0.2 log units of each other in “LogP[a]” value: 3.74 for the first, 3.68 for the second.

First: Cc1c(NC(=O)c2cccnc2C(F)F)cccc1OC(C)(C)C(C)C [Example 117]
Second: Cc1c(NC(=O)c2cccnc2C(F)F)cccc1OC(C)C1(Cl)CC1 (stereo not drawn) [Example 25]
The “LogP[a]” value of the first is higher: 3.61 for the first, 3.06 for the second.

First: Cc1c(NC(=O)c2cccnc2C(F)F)cccc1N1CCCC1 [Example 104]
Second: Cc1c(NC(=O)c2cccnc2C(F)F)cccc1OC1CCCCC1 [Example 16]
The “LogP[a]” value of the first is lower: 0.79 for the first, 3.52 for the second.

Going from `CCC(CC)Oc1cccc(NC(=O)c2cccnc2C(F)F)c1C(F)(F)F` [Example 92] to `CCCC(CCC)Oc1cccc(NC(=O)c2cccnc2C(F)F)c1C` [Example 12], the “LogP[a]” value rises from 3.55 to 4.26.

First: Cc1c(NC(=O)c2c(C(F)F)ccnc2C(F)F)cccc1OC1CCCC1 [Example 123]
Second: Cc1c(NC(=O)c2cccnc2C(F)F)cccc1OC(C)C1CCCC1 (stereo not drawn) [Example 85]
The “LogP[a]” value of the first is lower: 3.70 for the first, 4.06 for the second.

Going from `C#CCOCC(C)Oc1cccc(NC(=O)c2cccnc2C(F)F)c1C` (stereo not drawn) [Example 21] to `Cc1c(NC(=O)c2cccnc2C(F)F)cccc1OC(C)Cc1cccs1` (stereo not drawn) [Example 72], the “LogP[a]” value rises from 2.47 to 3.37.

Compared with `Cc1c(NC(=O)c2cccnc2C(F)F)cccc1C1CC2CCC1C2` (stereo not drawn) [Example 81], `Cc1c(NC(=O)c2cccnc2C(F)F)cccc1OC(C)c1ccccc1` (stereo not drawn) [Example 89] is lower in “LogP[a]” value: 3.80 for the first, 3.33 for the second.

Going from `Cc1c(NC(=O)c2cccnc2C(F)F)cccc1OC(C)c1ccc(F)cc1` (stereo not drawn) [Example 49] to `Cc1c(NC(=O)c2cccnc2C(F)F)cccc1OC(C)c1cccc(C(F)(F)F)c1` (stereo not drawn) [Example 53], the “LogP[a]” value rises from 3.29 to 3.70.

First: Cc1c(NC(=O)c2cccnc2C(F)F)cccc1OCc1cc(Cl)cc(Cl)c1 [Example 42]
Second: Cc1c(NC(=O)c2cccnc2C(F)F)cccc1Oc1ncc(C(F)(F)F)cc1Cl [Example 18]
The “LogP[a]” value of the first is higher: 3.96 for the first, 3.48 for the second.
